Measurements from PubChem BioAssay (NCI).
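GI50 is the concentration that inhibits growth by half. TGI denotes the concentration required for complete inhibition of growth.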

Key:
Assay in all cases: NCI-60 cell line screen, 384-well format
786-0 renal = system: 786-0 renal
A498 renal = system: A498 renal
A549 NSCLC = system: A549 NSCLC
ACHN renal = system: ACHN renal
BT-549 breast = system: BT-549 breast
CAKI-1 renal = system: CAKI-1 renal
CCRF-CEM leukemia = system: CCRF-CEM leukemia
COLO 205 colon = system: COLO 205 colon
DU-145 prostate = system: DU-145 prostate
EKVX NSCLC = system: EKVX NSCLC
HCC-2998 colon = system: HCC-2998 colon
HCT-116 colon = system: HCT-116 colon
HCT-15 colon = system: HCT-15 colon
HL-60(TB) leukemia = system: HL-60(TB) leukemia
HOP-62 NSCLC = system: HOP-62 NSCLC
HS 578T breast = system: HS 578T breast
HT29 colon = system: HT29 colon
IGROV1 ovarian = system: IGROV1 ovarian
K-562 leukemia = system: K-562 leukemia
KM12 colon = system: KM12 colon
LOX IMVI melanoma = system: LOX IMVI melanoma
M14 melanoma = system: M14 melanoma
MALME-3M melanoma = system: MALME-3M melanoma
MCF7 breast = system: MCF7 breast
MDA-MB-435 melanoma = system: MDA-MB-435 melanoma
MDA-MB-468 breast = system: MDA-MB-468 breast
MOLT-4 leukemia = system: MOLT-4 leukemia
NCI-H226 lung = system: NCI-H226 lung
NCI-H23 lung = system: NCI-H23 lung
NCI-H322M lung = system: NCI-H322M lung
NCI-H460 NSCLC = system: NCI-H460 NSCLC
NCI-H522 lung = system: NCI-H522 lung
NCI/ADR-RES ovarian = system: NCI/ADR-RES ovarian
OVCAR-3 ovarian = system: OVCAR-3 ovarian
OVCAR-4 ovarian = system: OVCAR-4 ovarian
OVCAR-8 ovarian = system: OVCAR-8 ovarian
PC-3 prostate = system: PC-3 prostate
RPMI-8226 leukemia = system: RPMI-8226 leukemia
RXF 393 renal = system: RXF 393 renal
SF-268 CNS = system: SF-268 CNS
SF-295 CNS = system: SF-295 CNS
SF-539 CNS = system: SF-539 CNS
SK-MEL-2 melanoma = system: SK-MEL-2 melanoma
SK-MEL-28 melanoma = system: SK-MEL-28 melanoma
SK-MEL-5 melanoma = system: SK-MEL-5 melanoma
SK-OV-3 ovarian = system: SK-OV-3 ovarian
SN12C renal = system: SN12C renal
SNB-19 CNS = system: SNB-19 CNS
SNB-75 CNS = system: SNB-75 CNS
SW-620 colon = system: SW-620 colon
TK-10 renal = system: TK-10 renal
U251 glioblastoma = system: U251 glioblastoma
UACC-257 melanoma = system: UACC-257 melanoma
UACC-62 melanoma = system: UACC-62 melanoma

CCOC(=O)c1cc(/C=C/c2ccc(Cl)cc2Cl)on1
GI50 ([…]-0 renal): 1840 nM | TGI (786-0 renal): 3.35 µM | GI50 (A498 renal): 1850 nM | TGI (A498 renal): 3.33 µM | GI50 (A549 NSCLC): 2440 nM | TGI (A549 NSCLC): 6.1 µM | GI50 (ACHN renal): 1860 nM | TGI (ACHN renal): 3.39 µM | GI50 (BT-549 breast): 2110 nM | TGI (BT-549 breast): 4.35 µM | GI50 (CAKI-1 renal): 1770 nM | TGI (CAKI-1 renal): 3.91 µM | GI50 (CCRF-CEM leukemia): 1130 nM | TGI (CCRF-CEM leukemia): 2370 nM | GI50 (COLO 205 colon): 2720 nM | TGI (COLO 205 colon): 6.54 µM | GI50 (DU-145 prostate): 4.46 µM | TGI (DU-145 prostate): > 100 µM | GI50 (EKVX NSCLC): 2700 nM | TGI (EKVX NSCLC): 8.84 µM | GI50 (HCC-2998 colon): 1960 nM | TGI (HCC-2998 colon): 3.97 µM | GI50 (HCT-116 colon): 740 nM | TGI (HCT-116 colon): 2040 nM | GI50 (HCT-15 colon): 1360 nM | TGI (HCT-15 colon): 4.34 µM | GI50 (HL-60(TB) leukemia): 818 nM | TGI (HL-60(TB) leukemia): 2040 nM | GI50 (HOP-62 NSCLC): 469 nM | TGI (HOP-62 NSCLC): 2830 nM | GI50 (HS 578T breast): 1970 nM | TGI (HS 578T breast): 3.54 µM | GI50 (HT29 colon): 1920 nM | TGI (HT29 colon): 4.22 µM | GI50 (IGROV1 ovarian): 2090 nM | TGI (IGROV1 ovarian): 4.34 µM | GI50 (K-562 leukemia): 10.7 µM | TGI (K-562 leukemia): 30.8 µM | GI50 (KM12 colon): 932 nM | TGI (KM12 colon): 3.93 µM | GI50 (LOX IMVI melanoma): 1910 nM | TGI (LOX IMVI melanoma): 3.63 µM | GI50 (M14 melanoma): 3.27 µM | TGI (M14 melanoma): 8.82 µM | GI50 (MALME-3M melanoma): 2390 nM | TGI (MALME-3M melanoma): 4.05 µM | GI50 (MCF7 breast): 662 nM | TGI (MCF7 breast): 2810 nM | GI50 (MDA-MB-435 melanoma): 3.41 µM | TGI (MDA-MB-435 melanoma): 11.3 µM | GI50 (MDA-MB-468 breast): 2280 nM | TGI (MDA-MB-468 breast): 3.94 µM | GI50 (MOLT-4 leukemia): 1030 nM | TGI (MOLT-4 leukemia): 2210 nM | GI50 (NCI-H226 lung): 1960 nM | TGI (NCI-H226 lung): 3.83 µM | GI50 (NCI-H23 lung): 2340 nM | TGI (NCI-H23 lung): 5.29 µM | GI50 (NCI-H322M lung): 4.04 µM | TGI (NCI-H322M lung): 14.1 µM | GI50 (NCI-H460 NSCLC): 1220 nM | TGI (NCI-H460 NSCLC): 2590 nM | GI50 (NCI-H522 lung): 2020 nM | TGI (NCI-H522 lung): 3.51 µM | GI50 (NCI/ADR-RES ovarian): 1840 nM | TGI (NCI/ADR-RES ovarian): 3.3 µM | GI50 (OVCAR-3 ovarian): 1850 nM | TGI (OVCAR-3 ovarian): 3.55 µM | GI50 (OVCAR-4 ovarian): 2630 nM | TGI (OVCAR-4 ovarian): 7.19 µM | GI50 (OVCAR-8 ovarian): 649 nM | TGI (OVCAR-8 ovarian): 11 µM | GI50 (PC-3 prostate): 1970 nM | TGI (PC-3 prostate): 4.05 µM | GI50 (RPMI-8226 leukemia): 471 nM | TGI (RPMI-8226 leukemia): 1250 nM | GI50 (RXF 393 renal): 1990 nM | TGI (RXF 393 renal): 3.46 µM | GI50 (SF-268 CNS): 4.09 µM | TGI (SF-268 CNS): 13.5 µM | GI50 (SF-295 CNS): 2470 nM | TGI (SF-295 CNS): 5.3 µM | GI50 (SF-539 CNS): 945 nM | TGI (SF-539 CNS): 2190 nM | GI50 (SK-MEL-2 melanoma): 2120 nM | TGI (SK-MEL-2 melanoma): 4.35 µM | GI50 (SK-MEL-28 melanoma): 2420 nM | TGI (SK-MEL-28 melanoma): 4.39 µM | GI50 (SK-MEL-5 melanoma): 1770 nM | TGI (SK-MEL-5 melanoma): 3.53 µM | GI50 (SK-OV-3 ovarian): 2010 nM | TGI (SK-OV-3 ovarian): 4.15 µM | GI50 (SN12C renal): 1810 nM | TGI (SN12C renal): 3.32 µM | GI50 (SNB-19 CNS): 3.1 µM | TGI (SNB-19 CNS): 8.17 µM | GI50 (SNB-75 CNS): 3.2 µM | TGI (SNB-75 CNS): 6.12 µM | GI50 (SW-620 colon): 1360 nM | TGI (SW-620 colon): 3.02 µM | GI50 (TK-10 renal): 2370 nM | TGI (TK-10 renal): 4.71 µM | GI50 (U251 glioblastoma): 1270 nM | TGI (U251 glioblastoma): 3.3 µM | GI50 (UACC-257 melanoma): 2950 nM | TGI (UACC-257 melanoma): 5.65 µM | GI50 (UACC-62 melanoma): 2080 nM | TGI (UACC-62 melanoma): 4.26 µM
